Measurements reported in ChEMBL document CHEMBL4257547, “Chemical modulation of transcription factors” (Medchemcomm, 2018).
One block for each molecule: values may come before it.

Experiments:
[1] = Inhibition of [32P]-labeled CREB KID (unknown origin) binding to GST-fused mouse CBP KIX domain preincubated with GST-fused CBP for 15 mins followed by CREB addition and measured after 30 mins by SDS-gel electrophoresis/autoradiographic method; parameters: species or system Homo sapiens
[2] = biological target: Mitogen-activated protein kinase kinase kinase 14 (Homo sapiens, UniProt Q99558); test: Inhibition of NIK (unknown origin) by HTRF method
[3] = Protein binding in mouse plasma after 4 hrs by rapid equilibrium dialysis method; assay type: ADME, cell-free; conditions: read-out: PPB
[4] = biological target: Bromodomain-containing protein 4 (Homo sapiens, UniProt O60885); test: Inhibition of human His-tagged BRD4 expressed in Escherichia coli BL21(DE3)-R3-pRARE2 cells preincubated for 30 mins followed by biotinylated acetyl-histone addition and measured after 30 mins by AlphaScreen method
B16-F10 = test: Cytotoxicity against mouse B16F10 cells assessed as decrease in cell viability after 24 hrs by MTT assay; assay type: functional, cell-based; conditions: B16-F10, 24 h
Homo sapiens = species on record: Homo sapiens; test: Selectivity ratio of IC50 for inhibition of recombinant His6-tagged human Max homodimer/HEX-tagged double-stranded oligonucleotide complex formation to IC50 for inhibition of recombinant His6-tagged bHLH-LZ domain of human Myc/His6-tagged human Max/HEX-tagged double-stranded oligonucleotide complex formation

Mitogen-activated protein kinase kinase kinase 14, sequence (Q99558 whole entry): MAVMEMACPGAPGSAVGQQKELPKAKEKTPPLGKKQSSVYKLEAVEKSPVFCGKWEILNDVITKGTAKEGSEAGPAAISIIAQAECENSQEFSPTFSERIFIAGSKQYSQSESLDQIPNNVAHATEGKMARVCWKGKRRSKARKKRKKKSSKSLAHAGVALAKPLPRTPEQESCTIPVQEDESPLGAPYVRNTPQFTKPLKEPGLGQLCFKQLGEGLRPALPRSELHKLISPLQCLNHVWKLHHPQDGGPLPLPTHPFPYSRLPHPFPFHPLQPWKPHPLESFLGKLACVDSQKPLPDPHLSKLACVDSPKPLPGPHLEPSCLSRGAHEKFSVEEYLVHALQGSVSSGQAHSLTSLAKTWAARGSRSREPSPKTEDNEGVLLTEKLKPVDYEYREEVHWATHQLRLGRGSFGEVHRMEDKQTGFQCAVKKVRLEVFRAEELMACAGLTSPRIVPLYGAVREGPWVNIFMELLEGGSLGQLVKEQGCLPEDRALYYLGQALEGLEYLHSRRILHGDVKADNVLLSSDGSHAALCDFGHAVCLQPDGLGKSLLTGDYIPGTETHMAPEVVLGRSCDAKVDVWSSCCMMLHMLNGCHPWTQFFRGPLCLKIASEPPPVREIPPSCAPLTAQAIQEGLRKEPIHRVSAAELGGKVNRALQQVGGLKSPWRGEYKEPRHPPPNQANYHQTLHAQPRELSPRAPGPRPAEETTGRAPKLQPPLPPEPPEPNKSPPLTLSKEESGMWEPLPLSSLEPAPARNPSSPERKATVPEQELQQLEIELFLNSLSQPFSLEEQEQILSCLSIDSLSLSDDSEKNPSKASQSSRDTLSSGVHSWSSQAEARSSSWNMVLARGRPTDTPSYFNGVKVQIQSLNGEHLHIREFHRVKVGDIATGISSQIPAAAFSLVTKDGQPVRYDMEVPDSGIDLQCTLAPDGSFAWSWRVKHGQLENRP

Structure (SMILES): O=C(Nc1ccc(Cl)cc1)c1cc2ccccc2cc1OP(=O)(O)O
IC50 [1]: 90000 nM

Ki [2]: 0.3 nM
Structure (SMILES): C[C@](O)(C#Cc1ccc2ncc(-c3nc(N)ncc3Cl)n2c1)c1nccs1

fraction unbound at 4 h [3]: < 0.001
Structure (SMILES): COc1ccc(C2=Nn3c(nnc3-c3cc(-c4ccc(Cl)cc4)n[nH]3)SC2C)cc1 (configuration not stated)

IC50 [4]: 2 nM
Structure (SMILES): Cc1nnn2c1-c1ccc(-c3cc[nH]n3)cc1C(c1ccc(Cl)cc1)=NC2

Structure (SMILES): CC(C)(O)/C=C/C(=O)[C@@](C)(O)[C@H]1C(O)C[C@@]2(C)[C@@H]3CC=C4[C@@H](C=C(O)C(=O)C4(C)C)[C@]3(C)CC[C@]12C (some centres not stated)
IC50 (B16-F10): 10000 nM

Ratio IC50 (Homo sapiens): 2
Structure (SMILES): COC(=O)c1ccc(Nc2ccc([N+](=O)[O-])c3nonc23)c(-c2ccc(C)cc2)c1

IC50 [4]: 6 nM
Structure (SMILES): Cc1nnn2c1-c1ccc(-c3ccc(N)nc3)cc1C(c1ccc(Cl)cc1)=NC2
